For 26 molecules, IC50 results are on record in patent US10206907B2, “Compounds useful for the treatment of degenerative and inflammatory diseases” (GALAPAGOS NV, priority 2008, dated 2019).

pIC50: −log10 of the molar value.

This experiment deals with Recombinant human JAK1 catalytic domain (Homo sapiens (Human), UniProt P23458). Kind of experiment: JAK1 inhibition assay. The class given is biochemical. As to conditions: semi-quantitative score. As to the method: Plates were washed 6 times with 300 μL per well of a 75 mM phosphoric acid solution and the bottom of the plates was sealed. 40 μL/well of Microscint-20 was added, the top of the plates was sealed and readout was performed using the Topcount (Perkin Elmer). Kinase activity was calculated by subtracting counts per minute (cpm) obtained in the presence of a positive control inhibitor (10 μM staurosporine) from cpm obtained in the presence of vehicle. The ability of a test compound to inhibit this activity was determined as: Percentage inhibition=((cpm determined for sample with test compound present−cpm determined for sample with positive control inhibitor) divided by (cpm determined in the presence of vehicle−cpm determined for sample with positive control inhibitor))*100%.
Recombinant human JAK1 catalytic domain, sequence (P23458 850-1154): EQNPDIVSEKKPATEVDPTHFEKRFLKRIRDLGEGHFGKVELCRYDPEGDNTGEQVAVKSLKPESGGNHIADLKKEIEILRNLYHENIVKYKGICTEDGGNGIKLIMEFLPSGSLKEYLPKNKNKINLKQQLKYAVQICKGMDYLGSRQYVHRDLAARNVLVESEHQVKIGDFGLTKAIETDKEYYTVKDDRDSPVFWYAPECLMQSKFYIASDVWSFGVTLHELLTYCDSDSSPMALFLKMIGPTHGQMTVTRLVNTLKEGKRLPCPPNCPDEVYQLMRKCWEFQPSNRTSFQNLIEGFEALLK
Dose dilution series were prepared for the compounds enabling the testing of dose-response effects in the JAK1 assay and the calculation of the IC50 for each compound.
A word on the pIC50: it is the negative decadic logarithm of the IC50, by convention in mol/L. `O=C(Nc1nc2cccc(-c3ccc(CN4CCN(c5ccccn5)CC4)cc3)n2n1)C1CC1` [Compound 142, N-(5-(4-((4-(pyridin-2-yl)piperazin-1-yl)methyl)phenyl)-[1,2,4]triazolo[1,5-a]pyridin-2-yl)cyclopropanecarboxamide]: the pIC50 is 6.30 to 7.00.

For the molecule `O=C(Nc1nc2cccc(-c3ccc(NS(=O)(=O)c4ccccc4)nc3)n2n1)C1CC1` [Compound 180, N-(5-(6-(phenylsulfonamido)pyridin-3-yl)-[1,2,4]triazolo[1,5-a]pyridin-2-yl)cyclopropanecarboxamide], the pIC50 is 6.30 to 7.00.

For the molecule `O=C(Nc1nc2cccc(-c3ccc(C(=O)N4CCC(N5CCOCC5)CC4)cc3)n2n1)C1CC1` [Compound 101, N-(5-(4-(4-morpholinopiperidine-1-carbonyl)phenyl)-[1,2,4]triazolo[1,5-a]pyridin-2-yl)cyclopropanecarboxamide], the pIC50 is 6.30 to 7.00.

Turning to `O=C(Nc1nc2cccc(-c3ccc(-c4cn[nH]c4)cc3)n2n1)C1CC1` [Compound 67, N-(5-(4-(1H-pyrazol-4-yl)phenyl)-[1,2,4]triazolo[1,5-a]pyridin-2-yl)cyclopropanecarboxamide], the pIC50 is 6.30 to 7.00.

For `CC(C)(CN1CCOCC1)NC(=O)c1ccc(-c2cccc3nc(NC(=O)C4CC4)nn23)cc1` [Compound 102, 4-(2-(cyclopropanecarboxamido)-[1,2,4]triazolo[1,5-a]pyridin-5-yl)-N-(2-methyl-1-morpholinopropan-2-yl)benzamide], the pIC50 is 6.30 to 7.00.

As to `O=C(Nc1ccc(-c2cccc3nc(NC(=O)C4CC4)nn23)cc1)c1cnccn1` [Compound 35, N-(4-(2-(cyclopropanecarboxamido)-[1,2,4]triazolo[1,5-a]pyridin-5-yl)phenyl)pyrazine-2-carboxamide], the pIC50 is 6.30 to 7.00.

On to `O=C(Nc1nc2cccc(-c3ccc(OCc4cccc(OC(F)(F)F)c4)cc3)n2n1)C1CC1` [Compound 38, N-(5-(4-(3-(trifluoromethoxy)benzyloxy)phenyl)-[1,2,4]triazolo[1,5-a]pyridin-2-yl)cyclopropanecarboxamide], for which the pIC50 was 6.30 to 7.00.

As for `CC(=O)NC1CCN(C(=O)Cc2ccc(-c3cccc4nc(NC(=O)C5CC5)nn34)cc2)CC1` [Compound 323, Cyclopropanecarboxylic acid (5-{4-[2-(4-acetylamino-piperidin-1-yl)-2-oxo-ethyl]-phenyl}-[1,2,4]triazolo[1,5-a]pyridin-2-yl)-amide], the pIC50 was 6.00 to 6.30.

For `Cc1cc(CNc2ccc(-c3cccc4nc(NC(=O)C5CC5)nn34)cn2)nn1C` [Compound 173, N-(5-(6-((1,5-dimethyl-1H-pyrazol-3-yl)methylamino)pyridin-3-yl)-[1,2,4]triazolo[1,5-a]pyridin-2-yl)cyclopropanecarboxamide], the pIC50 was below 6.00.

Regarding `CCOCC1CCN(C(=O)c2ccc(-c3cccc4nc(NC(=O)C5CC5)nn34)cc2)CC1` [Compound 73], the pIC50 is 6.30 to 7.00.

`O=C(Nc1nc2cccc(-c3ccc(C(=O)N4CCC(n5nnc6ccccc65)CC4)cc3)n2n1)C1CC1` [Compound 152, N-(5-(4-(4-(1H-benzo[d][1,2,3]triazol-1-yl)piperidine-1-carbonyl)phenyl)-[1,2,4]triazolo[1,5-a]pyridin-2-yl)cyclopropanecarboxamide]: the pIC50 was 6.30 to 7.00.

With `O=C(Nc1nc2cccc(-c3ccc(C(=O)N4CCC(CCc5ccccc5)CC4)cc3)n2n1)C1CC1` [Compound 147], the pIC50 is 6.30 to 7.00.

Regarding `O=C(Nc1nc2cccc(-c3cn(Cc4ccc(C(F)(F)F)nc4)nn3)n2n1)C1CC1` [Compound 188], the pIC50 was below 6.00.

In the case of `O=C(Nc1nc2cccc(-c3ccc(N4CCOCC4)nc3)n2n1)C1CC1` [Compound 6, N-(5-(6-morpholinopyridin-3-yl)-[1,2,4]triazolo[1,5-a]pyridin-2-yl)cyclopropanecarboxamide], the pIC50 was below 6.00.

Turning to `O=C(Nc1nc2cccc(-c3ccc(NCCc4cccnc4)nc3)n2n1)C1CC1` [Compound 172, N-(5-(6-(2-(pyridin-3-yl)ethylamino)pyridin-3-yl)-[1,2,4]triazolo[1,5-a]pyridin-2-yl)cyclopropanecarboxamide], the negative logarithm of the IC50 (pIC50) is 6.00 to 6.30.

As for `O=C(Nc1nc2cccc(-c3cnn(Cc4cccnc4)c3)n2n1)C1CC1` [Compound 185, Cyclopropanecarboxylic Acid [5-(1-pyridin-3-ylmethyl-1H-pyrazol-4-yl)-[1,2,4]triazolo[1,5-a]pyridin-2-yl]-amide], the negative logarithm of the IC50 (pIC50) was above 7.00.

For `COc1ccccc1C1CCN(C(=O)c2ccc(-c3cccc4nc(NC(=O)C5CC5)nn34)cc2)CC1` [Compound 131, N-(5-(4-(4-(2-methoxyphenyl)piperidine-1-carbonyl)phenyl)-[1,2,4]triazolo[1,5-a]pyridin-2-yl)cyclopropanecarboxamide], the pIC50 was 6.30 to 7.00.

`O=C(Nc1nc2cccc(-c3ccc(C(=O)N4CCC(c5nc6ccccc6[nH]5)CC4)cc3)n2n1)C1CC1` [Compound 128, N-(5-(4-(4-(1H-benzo[d]imidazol-2-yl)piperidine-1-carbonyl)phenyl)-[1,2,4]triazolo[1,5-a]pyridin-2-yl)cyclopropanecarboxamide]: the pIC50 was 6.00 to 6.30.

For the molecule `O=C(Nc1nc2cccc(-c3ccc(OCC(=O)N4CCCCC4)cc3)n2n1)C1CC1` [Compound 117, N-(5-(4-(2-oxo-2-(piperidin-1-yl)ethoxy)phenyl)-[1,2,4]triazolo[1,5-a]pyridin-2-yl)cyclopropanecarboxamide], the pIC50 was below 6.00.

As for `O=C(Nc1nc2cccc(-c3ccc(C(=O)N4CCC(Oc5cccnc5)CC4)cc3)n2n1)C1CC1` [Compound 110, N-(5-(4-(4-(pyridin-3-yloxy)piperidine-1-carbonyl)phenyl)-[1,2,4]triazolo[1,5-a]pyridin-2-yl)cyclopropanecarboxamide], the pIC50 was 6.30 to 7.00.

With `CN(Cc1ccc(-c2cncnc2)cc1)Cc1ccc(-c2cccc3nc(NC(=O)C4CC4)nn23)cc1` [Compound 161, N-(5-(4-((methyl(4-(pyrimidin-5-yl)benzyl)amino)methyl)phenyl)-[1,2,4]triazolo[1,5-a]pyridin-2-yl)cyclopropanecarboxamide], the negative-log IC50 (pIC50) is 6.00 to 6.30.

For `O=C(Nc1nc2cccc(-c3ccc(OCc4ccc(N5CCOCC5)nc4)cc3)n2n1)C1CC1` [Compound 165], the pIC50 is 6.30 to 7.00.

Take `O=C(Nc1nc2cccc(-c3ccc(-c4cccnc4)nc3)n2n1)C1CC1` [Compound 68, N-(5-(2,3′-bipyridin-5-yl)-[1,2,4]triazolo[1,5-a]pyridin-2-yl)cyclopropanecarboxamide]: the pIC50 is 6.30 to 7.00.

Regarding `O=C(Nc1nc2cccc(-c3cccc(CN4CCOCC4)c3)n2n1)C1CC1` [Compound 2, N-(5-(3-(morpholinomethyl)phenyl)-[1,2,4]triazolo[1,5-a]pyridin-2-yl)cyclopropanecarboxamide], the pIC50 was 6.30 to 7.00.

On to `CN(Cc1cccnc1)c1ccc(-c2cccc3nc(NC(=O)C4CC4)nn23)cc1` [Compound 162, N-(5-(4-(methyl(pyridin-3-ylmethyl)amino)phenyl)-[1,2,4]triazolo[1,5-a]pyridin-2-yl)cyclopropanecarboxamide], for which the pIC50 was below 6.00.

Take `O=C(Nc1nc2cccc(-c3ccnc(N4CCC(CCN5CCOCC5)CC4)c3)n2n1)C1CC1` [Compound 95, N-(5-(2-(4-(2-morpholinoethyl)piperidin-1-yl)pyridin-4-yl)-[1,2,4]triazolo[1,5-a]pyridin-2-yl)cyclopropanecarboxamide]: the pIC50 is below 6.00.
